Results taken from ChEMBL document CHEMBL4420076, “Amylin and calcitonin receptor agonist” (2017).
Numbered stars: 1 amine (or outer) side, 2 acyl side, 3 side chain; on linkers, the order of the positions; unused ones are H or OH. Side chains are listed from the residue outwards. Peptide text beside a SMILES is read from it. * marks the point of attachment. C20 diacid = O=C(O)CCCCCCCCCCCCCCCCCCC(=O)*; C16 diacid = O=C(O)CCCCCCCCCCCCCCC(=O)*; γGlu = O=C(O)[C@H](CCC(=O)[*:2])N[*:1]; AEEA = NCCOCCOCC(=O)O

Key:
Calcitonin receptor [1] = target: T1, Calcitonin receptor (Homo sapiens, UniProt P30988); experiment: Agonist activity at human calcitonin receptor expressed in BHK570 cells assessed as increase in intracellular cAMP concentration incubated for 3 hrs in absence of albumin by CRE luciferase reporter gene assay; assay type: functional, cell-based
T1 sequence (P30988 whole entry): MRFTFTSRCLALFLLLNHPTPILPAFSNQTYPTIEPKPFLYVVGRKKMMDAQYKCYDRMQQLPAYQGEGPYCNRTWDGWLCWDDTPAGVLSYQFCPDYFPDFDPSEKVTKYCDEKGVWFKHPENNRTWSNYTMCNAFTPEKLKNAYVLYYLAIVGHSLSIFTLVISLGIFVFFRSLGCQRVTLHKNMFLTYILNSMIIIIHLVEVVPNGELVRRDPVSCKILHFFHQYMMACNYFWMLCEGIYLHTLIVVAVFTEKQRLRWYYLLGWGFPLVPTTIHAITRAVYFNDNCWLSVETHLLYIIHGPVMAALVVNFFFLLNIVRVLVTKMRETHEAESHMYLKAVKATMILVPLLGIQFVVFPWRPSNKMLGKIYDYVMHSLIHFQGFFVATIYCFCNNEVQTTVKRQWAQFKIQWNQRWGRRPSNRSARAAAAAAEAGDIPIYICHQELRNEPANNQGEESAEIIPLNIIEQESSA

[2] = target: T2, Amylin receptor AMY3; CALCR/RAMP3 (Homo sapiens, UniProt O60896+P30988); experiment: Agonist activity at human amylin receptor expressed in BHK570 cells co-expressing RAMP3 assessed as increase in intracellular cAMP concentration incubated for 3 hrs in presence of 10% FBS by CRE luciferase reporter gene assay; assay type: functional, cell-based
T2 sequence (P30988 whole entry): T1 sequence (P30988 whole entry)
T2 sequence (O60896 whole entry): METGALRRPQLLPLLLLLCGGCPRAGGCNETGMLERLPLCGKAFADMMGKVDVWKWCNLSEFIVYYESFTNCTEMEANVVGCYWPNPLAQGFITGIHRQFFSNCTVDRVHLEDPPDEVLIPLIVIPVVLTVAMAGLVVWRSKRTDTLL

Calcitonin receptor [3] = target: T1, Calcitonin receptor; experiment: Agonist activity at human calcitonin receptor expressed in BHK570 cells assessed as increase in intracellular cAMP concentration incubated for 3 hrs in presence of 10% FBS by CRE luciferase reporter gene assay; assay type: functional, cell-based
[4] = Stability in pH 7.5 buffer assessed as lag time for fibril formation at 1 uM by Thioflavin T based fluorescence assay; assay type: physicochemical; conditions: pH 7.5, 1 µM
[5] = Stability in pH 7.5 buffer assessed as compound recovery at 1 uM by Thioflavin T based fluorescence assay; assay type: physicochemical; conditions: read-out: Drug recovery
[6] = Solubility in 100 mM glycylglycine buffer at pH 3.0 incubated for 18 hrs by UPLC analysis; assay type: physicochemical
[7] = Solubility in 100 mM glycylglycine buffer at pH 4.0 incubated for 18 hrs by UPLC analysis; assay type: physicochemical
[8] = Solubility in 100 mM bistrispropane buffer at pH 6.0 incubated for 18 hrs by UPLC analysis; assay type: physicochemical
[9] = Solubility in 100 mM glycylglycine buffer at pH 5.0 incubated for 18 hrs by UPLC analysis; assay type: physicochemical
[10] = Solubility in 100 mM bistrispropane buffer at pH 6.5 incubated for 18 hrs by UPLC analysis; assay type: physicochemical
[11] = Solubility in 100 mM bistrispropane buffer at pH 7.0 incubated for 18 hrs by UPLC analysis; assay type: physicochemical
[12] = Solubility in 100 mM bistrispropane buffer at pH 7.5 incubated for 18 hrs by UPLC analysis; assay type: physicochemical
[13] = Solubility in 100 mM bistrispropane buffer at pH 8.0 incubated for 18 hrs by UPLC analysis; assay type: physicochemical
Calcitonin receptor [14] = target: T1, Calcitonin receptor; experiment: Displacement of [125I]-labeled human calcitonin from human calcitonin receptor expressed in BHK tkts13 cell membranes incubated for 1 hr by scintillation proximity assay
[15] = target: T3, Amylin receptor AMY3; CALCR/RAMP3 (Rattus norvegicus, UniProt P32214+Q9JJ73); experiment: Displacement of [125I]-labeled rat amylin from rat amylin receptor expressed in BHK tkts13 cell membranes co-expressing RAMP3 incubated for 120 mins by scintillation proximity assay
T3 sequence (P32214 whole entry): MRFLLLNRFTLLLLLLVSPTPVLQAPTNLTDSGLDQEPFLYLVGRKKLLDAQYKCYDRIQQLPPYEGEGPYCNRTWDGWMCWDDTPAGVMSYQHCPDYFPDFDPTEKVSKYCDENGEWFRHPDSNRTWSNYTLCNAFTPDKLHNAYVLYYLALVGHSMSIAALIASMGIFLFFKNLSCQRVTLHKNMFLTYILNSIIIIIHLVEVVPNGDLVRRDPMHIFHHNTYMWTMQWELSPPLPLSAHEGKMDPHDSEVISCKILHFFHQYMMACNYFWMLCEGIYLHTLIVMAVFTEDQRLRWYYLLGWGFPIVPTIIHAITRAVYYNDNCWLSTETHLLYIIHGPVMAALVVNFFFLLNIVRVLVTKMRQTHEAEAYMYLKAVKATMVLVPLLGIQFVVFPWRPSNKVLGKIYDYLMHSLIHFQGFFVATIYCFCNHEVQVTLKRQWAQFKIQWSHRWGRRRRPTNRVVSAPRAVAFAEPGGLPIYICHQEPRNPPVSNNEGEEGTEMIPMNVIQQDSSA
T3 sequence (Q9JJ73 whole entry): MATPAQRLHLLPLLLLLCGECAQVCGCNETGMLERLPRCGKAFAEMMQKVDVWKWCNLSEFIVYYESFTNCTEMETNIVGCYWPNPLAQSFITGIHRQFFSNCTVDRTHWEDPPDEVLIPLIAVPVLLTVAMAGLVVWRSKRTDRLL

Rattus norvegicus [16] = experiment: Reduction in food intake in Sprague-Dawley rat at 3 nmol/kg measured 0 to 24 hrs post dose relative to control; assay type: functional; parameters: scale not given: the % may be the effect or the level left
Rattus norvegicus [17] = experiment: Reduction in food intake in Sprague-Dawley rat at 3 nmol/kg measured 24 to 48 hrs post dose relative to control; assay type: functional; parameters: scale not given: the % may be the effect or the level left
[18] = target: T2, Amylin receptor AMY3; CALCR/RAMP3; experiment: Agonist activity at human amylin receptor expressed in BHK570 cells co-expressing RAMP3 assessed as increase in intracellular cAMP concentration incubated for 3 hrs in absence of albumin by CRE luciferase reporter gene assay; assay type: functional, cell-based
[19] = target: T2, Amylin receptor AMY3; CALCR/RAMP3; experiment: Displacement of [125I]-labeled rat amylin from human amylin receptor expressed in BHK570 cell membranes co-expressing RAMP3 incubated for 120 mins by scintillation proximity assay

EC50 (Calcitonin receptor [1]) [nM]	EC50 [2] [nM]	EC50 (Calcitonin receptor [3]) [nM]	Time [4] [h]	remaining at 1 µM [5] [%]	solubility at 18 h [6] [µM]	solubility at 18 h [7] [µM]	solubility at 18 h [8] [µM]	solubility at 18 h [9] [µM]	solubility at 18 h [10] [µM]	solubility at 18 h [11] [µM]	solubility at 18 h [12] [µM]	solubility at 18 h [13] [µM]	IC50 (Calcitonin receptor [14]) [nM]	IC50 [15] [nM]	EC50 [18] [nM]	IC50 [19] [nM]	Compound	Activity (Rattus norvegicus [16]) [%]	Activity (Rattus norvegicus [17]) [%]
0.019	0.049	0.028	> 45	100	≥ 200	≥ 200	≥ 200	≥ 200	≥ 200	≥ 200	≥ 200	≥ 200	0.085	0.455			CC(C)C[C@H](NC(=O)[C@H](C)NC(=O)[C@H](C)NC(=O)[C@@H](NC(=O)[C@H](CO)NC(=O)[C@H](CC(C)C)NC(=O)[C@H](CCC(=O)O)NC(=O)[C@H](CO)NC(=O)[C@H](C)N)[C@@H](C)O)C(=O)NCC(=O)N[C@@H](CCCNC(=N)N)C(=O)N[C@@H](CC(C)C)C(=O)N[C@@H](CO)C(=O)N[C@@H](C)C(=O)N[C@@H](CCC(=O)O)C(=O)N[C@@H](CC(C)C)C(=O)N[C@@H](Cc1cnc[nH]1)C(=O)N[C@@H](CCCCNC(=O)CC[C@H](NC(=O)CCCCCCCCCCCCCCCCCCC(=O)O)C(=O)O)C(=O)N[C@@H](CC(C)C)C(=O)N[C@@H](C)C(=O)N[C@H](C(=O)N[C@@H](CC(C)C)C(=O)N1CCC[C@H]1C(=O)N[C@@H](CCCNC(=N)N)C(=O)N[C@H](C(=O)N[C@@H](CCC(=O)O)C(=O)N[C@H](C(=O)NCC(=O)N[C@@H](CO)C(=O)NCC(=O)N[C@@H](CO)C(=O)N1CCC[C@H]1C(N)=O)[C@@H](C)O)[C@@H](C)O)[C@@H](C)O (H-ASELSTAALGRLSAELHK([γGlu-C20 diacid])LATLPRTETGSGSP-NH2)		
	0.004	0.003			≥ 200	≥ 200	≥ 200	≥ 200	≥ 200	≥ 200	≥ 200	≥ 200		0.064	0.01	0.015	CC(C)C[C@H](NC(=O)[C@H](C)NC(=O)[C@H](C)NC(=O)[C@@H](NC(=O)[C@H](CO)NC(=O)[C@H](CC(C)C)NC(=O)[C@H](CCC(=O)O)NC(=O)[C@H](CO)NC(=O)[C@H](C)NC(=O)CCCCCCCCCCCCCCC(=O)O)[C@@H](C)O)C(=O)NCC(=O)N[C@@H](CCCNC(=N)N)C(=O)N[C@@H](CC(C)C)C(=O)N[C@@H](CO)C(=O)N[C@@H](C)C(=O)N[C@@H](CCC(=O)O)C(=O)N[C@@H](CC(C)C)C(=O)N[C@@H](Cc1cnc[nH]1)C(=O)N[C@@H](CCC(=O)O)C(=O)N[C@@H](CC(C)C)C(=O)N[C@@H](C)C(=O)N[C@H](C(=O)N[C@@H](CC(C)C)C(=O)N1CCC[C@H]1C(=O)N[C@@H](CCCNC(=N)N)C(=O)N[C@H](C(=O)N[C@@H](CCC(=O)O)C(=O)N[C@H](C(=O)NCC(=O)N[C@@H](CO)C(=O)NCC(=O)N[C@@H](CO)C(=O)N1CCC[C@H]1C(N)=O)[C@@H](C)O)[C@@H](C)O)[C@@H](C)O ({C16 diacid}-ASELSTAALGRLSAELHELATLPRTETGSGSP-NH2)	28	-2
0.018	0.073	0.03	> 45	100	≥ 200	≥ 200	≥ 200	≥ 200	≥ 200	≥ 200	≥ 200	≥ 200	0.085	0.146	0.027		CC(C)C[C@H](NC(=O)[C@H](C)NC(=O)[C@H](C)NC(=O)[C@@H](NC(=O)[C@H](CO)NC(=O)[C@H](CC(C)C)NC(=O)[C@H](CCC(=O)O)NC(=O)[C@H](CO)NC(=O)[C@H](C)NC(=O)COCCOCCNC(=O)CC[C@H](NC(=O)CCCCCCCCCCCCCCCCCCC(=O)O)C(=O)O)[C@@H](C)O)C(=O)NCC(=O)N[C@@H](CCCNC(=N)N)C(=O)N[C@@H](CC(C)C)C(=O)N[C@@H](CO)C(=O)N[C@@H](C)C(=O)N[C@@H](CCC(=O)O)C(=O)N[C@@H](CC(C)C)C(=O)N[C@@H](Cc1cnc[nH]1)C(=O)N[C@@H](CCC(=O)O)C(=O)N[C@@H](CC(C)C)C(=O)N[C@@H](C)C(=O)N[C@H](C(=O)N[C@@H](CC(C)C)C(=O)N1CCC[C@H]1C(=O)N[C@@H](CCCNC(=N)N)C(=O)N[C@H](C(=O)N[C@@H](CCC(=O)O)C(=O)N[C@H](C(=O)NCC(=O)N[C@@H](CO)C(=O)NCC(=O)N[C@@H](CO)C(=O)N1CCC[C@H]1C(N)=O)[C@@H](C)O)[C@@H](C)O)[C@@H](C)O ({C20 diacid-γGlu-AEEA}-ASELSTAALGRLSAELHELATLPRTETGSGSP-NH2)		
0.023	0.092	0.04			≥ 200	≥ 200	≥ 200		≥ 200	≥ 200	≥ 200	≥ 200		0.045	0.02	0.159	CC(C)C[C@H](NC(=O)[C@H](CCCNC(=N)N)NC(=O)CNC(=O)[C@H](CC(C)C)NC(=O)[C@@H](NC(=O)[C@H](C)NC(=O)[C@@H](NC(=O)[C@H](CO)NC(=O)[C@H](CC(C)C)NC(=O)[C@H](CCC(=O)O)NC(=O)[C@H](CO)NC(=O)[C@H](C)NC(=O)CC[C@H](NC(=O)CCCCCCCCCCCCCCCCCCC(=O)O)C(=O)O)[C@@H](C)O)[C@@H](C)O)C(=O)N[C@@H](CO)C(=O)N[C@@H](C)C(=O)N[C@@H](CCC(=O)O)C(=O)N[C@@H](CC(C)C)C(=O)N[C@@H](Cc1cnc[nH]1)C(=O)N[C@@H](CCC(=O)O)C(=O)N[C@@H](CC(C)C)C(=O)N[C@@H](CO)C(=O)N[C@H](C(=O)N[C@@H](Cc1ccc(O)cc1)C(=O)N1CCC[C@H]1C(=O)N[C@@H](CCCNC(=N)N)C(=O)N[C@H](C(=O)N[C@@H](CCC(=O)O)C(=O)N[C@H](C(=O)NCC(=O)N[C@@H](CO)C(=O)NCC(=O)N[C@@H](CO)C(=O)N[C@@H](Cc1ccc(O)cc1)C(N)=O)[C@@H](C)O)[C@@H](C)O)[C@@H](C)O ({C20 diacid-γGlu}-ASELSTATLGRLSAELHELSTYPRTETGSGSY-NH2)	46	68
